Assay results as given in patent publication US12202785B2 (Texas Tech University System, priority 2018, dated 2025).
Entries after “also recorded” stand apart in the source; their conditions may differ.

Legend:
[1] = system: Drinking In the Dark (DID) murine model of binge drinking; assay: Drinking In the Dark (DID) murine model of binge drinking; type: in vivo, mice; conditions: for binge ethanol consumption: figure legends FIG. 8C to 15C, dose not given
Method: Using a standard Drinking In the Dark (DID) murine model of binge drinking, we tested the effect of 0, 25, 35, 50 and 100 mg/kg per os (p.o.) acetylated minocycline (derivative Y, or CMM1) vs control.

AUD traits = conditions: seven tetracyclines tested; earlier published work of the inventors; cited from earlier work
E. coli = E. coli zone of inhibition (ZOI) and recovered colony forming units (CFU) per disk; type: cell-based; conditions: dose response
Method: Minocycline and two acetylated derivatives, CMM1 (B) and CMM2 (Y), were tested in a dose response manner for A) zone of inhibition (ZOI) and B) recovered colony forming units (CFU) per disk.

[2] = cited from earlier work
DID ethanol consumption = assay: Drinking In the Dark (DID) ethanol consumption after ten-day GI microbiome sterilization; type: in vivo; conditions: 100 mg/kg i.p.; ampicillin, neomycin, metronidazole, vancomycin pre-treatment vs none; n=7
Method: A ten-day “sterilization” treatment with ampicillin, neomycin, metronidozale and vancomycin was used. Bedding was changed daily to avoid repopulation. DID was started on day 11 after one day of no metronidazole. Tigecycline was given at 100 mg/kg intraperitoneal (i.p.) n=7, mean±SEM.

DID consumption = assay: DID ethanol consumption after intracerebroventricular (ICV) dosing; type: in vivo; conditions: 3 ul of 9 mg/ml icv 20 hrs prior to DID testing; n=9-11; p<0.01
Method: To test the hypothesis that tigecycline works at the level of the CNS, rather than the PNS, 3 ul of drug (9 mg/ml) was given icy 20 hrs prior to DID testing. n=9-11, mean±SEM, **p<0.01.

[3] = system: DBA/2J mice, alcohol withdrawal symptoms; assay: Alcohol withdrawal, Handling Induced Convulsion scores; type: in vivo
Method: Female and male DBA/2J mice were tested with CMM1, 100 mg/kg p.o., at 2 hrs following 4 g/kg 20% ethanol in saline. Shown are the Handling Induced Convulsion scores, background subtracted and summed over 24 hours. […] Mean±SEM, n=5/group.

[4] = system: Large White x Landrace hybrid swine; assay: Two-bucket choice water vs 5% ethanol in swine; conditions: 10 mg/kg p.o., n=3/group

SMILES: COc1ccc(N(C)C)c2c1C(=O)C1=C(O)c3c(O)c(C(=O)NC(C)=O)c(O)c(N(C)C)c3CC1C2 (stereo not shown) [Methyl Ether N-Monoacetate Minocycline, 4,7-Bis-dimethylamino-1,3,12-trihydroxy-10-methoxy-11-oxo-5,5a,6,11-tetrahydro-naphthacene-2-carboxylic acid acetyl-amide]
- binge ethanol consumption [1]: reduction of binge ethanol consumption

SMILES: CN(C)c1ccc(O)c2c1CC1CC3C(N(C)C)C(O)=C(C(N)=O)C(=O)C3(O)C(O)=C1C2=O (stereo not shown) [Minocycline, 4,7-Bis-dimethylamino-3,10,12,12a-tetrahydroxy-1,11-dioxo-1,4,4a,5,5a,6,11,12a-octahydro-naphthacene-2-carboxylic acid amide]
- efficacy against AUD traits (AUD traits): efficacious; also recorded: effective
- antibiotic activity (ZOI and recovered CFU per disk) (E. coli): eliminated E. coli

SMILES: CCOc1ccc(N(C)C)c2c1C(=O)C1=C(O)C3(O)C(=O)C(C(N)=O)=C(O)C(N(C)C)C3CC1C2 (stereo not shown) [Ethyl Ether Minocycline, 4,7-Bis-dimethylamino-10-ethoxy-3,12,12a-trihydroxy-1,11-dioxo-1,4,4a,5,5a,6,11,12a-octahydro-naphthacene-2-carboxylic acid amide]
- binge ethanol consumption [1]: reduction of binge ethanol consumption

SMILES: CCCOc1ccc(N(C)C)c2c1C(=O)C1=C(O)C3(O)C(=O)C(C(N)=O)=C(O)C(N(C)C)C3CC1C2 (stereo not shown) [Propyl Ether Minocycline, 4,7-Bis-dimethylamino-3,12,12a-trihydroxy-1,11-dioxo-10-propoxy-1,4,4a,5,5a,6,11,12a-octahydro-naphthacene-2-carboxylic acid amide]
- binge ethanol consumption [1]: reduction of binge ethanol consumption

SMILES: CC(=O)NC(=O)c1c(O)cc2c(c1O)C(O)=C1C(=O)c3c(OC(C)=O)ccc(N(C)C)c3CC1C2 (stereo not shown) [De Methyl Diacetate Minocycline, Acetic acid 9-acetylcarbamoyl-4-dimethylamino-8,10,11-trihydroxy-12-oxo-5,5a,6,12-tetrahydro-naphthacen-1-yl ester]
- binge ethanol consumption [1]: reduction of binge ethanol consumption

SMILES: CN(C)c1cc(NC(=O)CNC(C)(C)C)c(O)c2c1C[C@H]1C[C@H]3[C@H](N(C)C)C(O)=C(C(N)=O)C(=O)[C@@]3(O)C(O)=C1C2=O [Tigecycline]
- LogD [2]: −2.73
- LogP [2]: −1.30
- efficacy against AUD traits (AUD traits): efficacious; also recorded: effective
- DID ethanol consumption / efficacy of tigecycline after gut sterilization (DID ethanol consumption): No significant difference
- DID ethanol consumption (DID consumption): reduced DID consumption

SMILES: COc1ccc(N(C)C)c2c1C(=O)C1=C(O)C3(O)C(=O)C(C(N)=O)=C(O)C(N(C)C)C3CC1C2 (stereo not shown) [Methyl Ether Minocycline, 4,7-Bis-dimethylamino-3,12,12a-trihydroxy-10-methoxy-1,11-dioxo-1,4,4a,5,5a,6,11,12a-octahydro-naphthacene-2-carboxylic acid amide]
- binge ethanol consumption [1]: reduction of binge ethanol consumption

SMILES: C[C@H]1c2cccc(O)c2C(=O)C2=C(O)[C@]3(O)C(=O)C(C(N)=O)=C(O)[C@@H](N(C)C)[C@@H]3[C@@H](O)[C@@H]21 [Doxycycline]
- LogD [2]: −3.29
- LogP [2]: −0.54
- efficacy against AUD traits (AUD traits): efficacious; also recorded: effective

SMILES: CC(=O)NC(=O)c1c(OC(C)=O)c2c(c(N(C)C)c1OC(C)=O)CC1Cc3c(N(C)C)ccc(OC(C)=O)c3C(=O)C1=C2OC(C)=O (stereo not shown) [Penta Acetyl Minocycline, Acetic acid 3,10,12-triacetoxy-2-acetylcarbamoyl-4,7-bis-dimethylamino-11-oxo-5,5a,6,11-tetrahydro-naphthacen-1-yl ester]
- binge ethanol consumption [1]: reduction of binge ethanol consumption

SMILES: CCCCOc1ccc(N(C)C)c2c1C(=O)C1=C(O)C3(O)C(=O)C(C(N)=O)=C(O)C(N(C)C)C3CC1C2 (stereo not shown) [Butyl Ether Minocycline, 10-Butoxy-4,7-bis-dimethylamino-3,12,12a-trihydroxy-1,11-dioxo-1,4,4a,5,5a,6,11,12a-octahydro-naphthacene-2-carboxylic acid amide]
- binge ethanol consumption [1]: reduction of binge ethanol consumption

SMILES: COc1ccc(N(C)C)c2c1C(=O)C1=C(O)c3c(c(N(C)C)c(OC(C)=O)c(C(=O)NC(C)=O)c3OC(C)=O)CC1C2 (stereo not shown) [Methyl Ether Tri Acetate Minocycline, Acetic acid 4-acetoxy-3-acetylcarbamoyl-1,10-bis-dimethylamino-5-hydroxy-7-methoxy-6-oxo-6,11,11a,12-tetrahydro-naphthacen-2-yl ester]
- binge ethanol consumption [1]: reduction of binge ethanol consumption

SMILES: CN(C)[C@@H]1C(O)=C(C(N)=O)C(=O)[C@@]2(O)C(O)=C3C(=O)c4c(O)ccc(Cl)c4[C@@H](O)[C@H]3C[C@@H]12 [Demeclocycline]
- LogD [2]: −3.40
- LogP [2]: −1.07

SMILES: CC(=O)NC(=O)c1c(OC(C)=O)c2c(c(N(C)C)c1OC(C)=O)CC1Cc3c(N(C)C)ccc(OC(C)=O)c3C(=O)C1=C2O (stereo not shown) [CMM2, Acetic acid 3,10-diacetoxy-2-acetylcarbamoyl-4,7-bis-dimethylamino-12-hydroxy-11-oxo-5,5a,6,11-tetrahydro-naphthacen-1-yl ester]
- antibiotic activity (ZOI and recovered CFU per disk) (E. coli): loss of antibiotic activity even at high doses

SMILES: CN(C)[C@@H]1C(=O)C(C(N)=O)=C(O)[C@@]2(O)C(=O)C3=C(O)c4c(O)cccc4[C@@](C)(O)[C@H]3[C@H](O)[C@@H]12 [Oxytetracycline]
- LogD [2]: −4.25
- LogP [2]: −1.5

SMILES: CC(=O)NC(=O)c1c(OC(C)=O)c2c(c(N(C)C)c1OC(C)=O)CC1Cc3c(N(C)C)ccc(OC(C)=O)c3C(=O)C1=C2O (stereo not shown) [Tetra Acetyl Minocycline, Acetic acid 3,10-diacetoxy-2-acetylcarbamoyl-4,7-bis-dimethylamino-12-hydroxy-11-oxo-5,5a,6,11-tetrahydro-naphthacen-1-yl ester]
- binge ethanol consumption [1]: reduction of binge ethanol consumption

SMILES: CC(=O)NC(=O)c1c(OC(C)=O)c2c(c(N(C)C)c1OC(C)=O)CC1Cc3c(N(C)C)ccc(OC(C)=O)c3C(=O)C1=C2OC(C)=O (stereo not shown) [CMM1, Acetic acid 3,10,12-triacetoxy-2-acetylcarbamoyl-4,7-bis-dimethylamino-11-oxo-5,5a,6,11-tetrahydro-naphthacen-1-yl ester]
- efficacy on withdrawal compared with parent drug minocycline ([3]; 100 mg/kg p.o.): more effective than the parent drug
- efficacy on withdrawal, females vs males ([3]; 100 mg/kg p.o.): more effective in females
- alcohol withdrawal symptoms (Handling Induced Convulsion scores, background subtracted, summed over 24 hours) ([3]; 100 mg/kg p.o. at 2 hrs following 4 g/kg 20% ethanol, female and male, n=5/group): reduced alcohol withdrawal symptoms
- onset, peak and duration of withdrawal symptoms ([3]; 100 mg/kg p.o., n=5/group): reduced onset, peak and duration of withdrawal symptoms
- dose dependence of reduction of alcohol consumption ([1]; 0, 25, 35, 50 and 100 mg/kg p.o.): dose-dependent response
- ethanol consumption (drinking) ([1]; 0, 25, 35, 50 and 100 mg/kg p.o. vs control, n=4/group, p=0.004): significantly reduced drinking
- water consumption ([1]; FIGS. 5A to 5D): not water consumption
- alcohol preference [4]: reduced
- total ethanol consumption [4]: reduced
- antibiotic activity (ZOI and recovered CFU per disk) (E. coli): loss of antibiotic activity even at high doses
